Assay results: ChEMBL document CHEMBL3297697, “Property- and structure-guided discovery of a tetrahydroindazole series of interleukin-2 inducible T-cell kinase inhibitors” (J Med Chem, 2014)
Values after ≈ are worked out from the molar mass of the structure shown.

What was measured:
[1] = Clearance in beagle dog at 1 mg/kg, iv by LC-MS/MS analysis; type: ADME, organism-based, Canis lupus familiaris; parameters: dose 1 mg/kg, route intravenous; conditions: in vivo
[2] = target: Dual specificity protein kinase CLK2 (Homo sapiens) (UniProt P49760); test: Inhibition of CLK2 (unknown origin) at 0.1 uM
Chain of Dual specificity protein kinase CLK2 (Homo sapiens) (P49760 whole entry, looked up): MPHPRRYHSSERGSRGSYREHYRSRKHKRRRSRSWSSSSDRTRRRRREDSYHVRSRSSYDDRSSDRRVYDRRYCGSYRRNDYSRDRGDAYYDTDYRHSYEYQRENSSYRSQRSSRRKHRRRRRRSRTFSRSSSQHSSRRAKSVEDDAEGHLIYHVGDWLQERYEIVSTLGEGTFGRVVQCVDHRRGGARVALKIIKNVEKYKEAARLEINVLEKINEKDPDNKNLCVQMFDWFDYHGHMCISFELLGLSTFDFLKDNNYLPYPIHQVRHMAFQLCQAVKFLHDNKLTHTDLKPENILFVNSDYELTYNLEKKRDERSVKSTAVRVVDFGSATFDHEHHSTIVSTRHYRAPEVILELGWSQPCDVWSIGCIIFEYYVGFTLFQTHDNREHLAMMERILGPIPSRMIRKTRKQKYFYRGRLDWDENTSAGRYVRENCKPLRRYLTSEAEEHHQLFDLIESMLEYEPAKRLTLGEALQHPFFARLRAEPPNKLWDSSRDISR

[3] = Volume of distribution at steady state in BALB/c mouse at 1 mg/kg, iv by LC-MS/MS analysis; type: ADME, organism-based; parameters: dose 1 mg/kg, route intravenous; conditions: in vivo, read-out: Vdss
[4] = AUC in Sprague-Dawley rat at 1 mg/kg, iv by LC-MS/MS analysis; type: ADME, organism-based; parameters: dose 1 mg/kg, route intravenous; conditions: plasma
[5] = Clearance in Sprague-Dawley rat at 1 mg/kg, iv by LC-MS/MS analysis; type: ADME, organism-based; parameters: dose 1 mg/kg, route intravenous; conditions: in vivo
[6] = AUC in BALB/c mouse at 50 mg/kg, po by LC-MS/MS analysis; type: ADME, organism-based; parameters: dose 50 mg/kg, route oral; conditions: plasma
[7] = Half life in BALB/c mouse at 1 mg/kg, iv by LC-MS/MS analysis; type: ADME, organism-based; parameters: dose 1 mg/kg, route intravenous; conditions: in vivo
[8] = Apparent permeability across MDCK cells; type: ADME, cell-based, Canis lupus familiaris; conditions: dog
[9] = AUC in beagle dog at 5 mg/kg, po by LC-MS/MS analysis; type: ADME, organism-based, Canis lupus familiaris; parameters: dose 5 mg/kg, route oral; conditions: plasma
physchem [10] = conditions: PBS buffer, pH 7.4, Kinetic_solubility
[11] = target: High affinity nerve growth factor receptor (Homo sapiens) (UniProt P04629); test: Inhibition of TRKA (unknown origin) at 0.1 uM
Chain of High affinity nerve growth factor receptor (Homo sapiens) (P04629 33-796 limits assumed): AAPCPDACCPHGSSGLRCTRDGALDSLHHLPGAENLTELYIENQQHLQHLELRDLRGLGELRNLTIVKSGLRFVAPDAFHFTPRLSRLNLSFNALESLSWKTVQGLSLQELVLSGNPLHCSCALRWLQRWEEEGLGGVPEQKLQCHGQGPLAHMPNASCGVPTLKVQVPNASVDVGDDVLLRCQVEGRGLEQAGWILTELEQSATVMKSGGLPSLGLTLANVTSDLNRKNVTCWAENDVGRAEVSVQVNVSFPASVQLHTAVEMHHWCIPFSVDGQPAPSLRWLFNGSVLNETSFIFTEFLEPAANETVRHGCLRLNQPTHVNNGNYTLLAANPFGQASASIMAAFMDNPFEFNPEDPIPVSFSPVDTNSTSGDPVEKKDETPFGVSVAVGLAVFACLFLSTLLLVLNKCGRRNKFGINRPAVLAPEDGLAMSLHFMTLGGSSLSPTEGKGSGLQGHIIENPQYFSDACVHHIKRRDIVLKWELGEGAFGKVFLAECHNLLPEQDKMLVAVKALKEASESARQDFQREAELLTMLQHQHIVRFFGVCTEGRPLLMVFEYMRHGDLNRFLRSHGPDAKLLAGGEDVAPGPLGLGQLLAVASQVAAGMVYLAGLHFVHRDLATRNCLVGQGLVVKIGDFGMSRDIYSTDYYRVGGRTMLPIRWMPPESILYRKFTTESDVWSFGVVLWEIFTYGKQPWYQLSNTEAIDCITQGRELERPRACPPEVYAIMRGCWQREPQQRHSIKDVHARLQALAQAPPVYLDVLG

[12] = target: Receptor-type tyrosine-protein kinase FLT3 (Homo sapiens) (UniProt P36888); test: Inhibition of FLT3 (unknown origin) at 0.1 uM
[13] = Cmax in Sprague-Dawley rat at 5 mg/kg, po by LC-MS/MS analysis; type: ADME, organism-based; parameters: dose 5 mg/kg, route oral; conditions: in vivo
[14] = target: NT-3 growth factor receptor (Homo sapiens) (UniProt Q16288); test: Inhibition of TRKC (unknown origin) at 0.1 uM
Chain of NT-3 growth factor receptor (Homo sapiens) (Q16288 32-839 limits assumed): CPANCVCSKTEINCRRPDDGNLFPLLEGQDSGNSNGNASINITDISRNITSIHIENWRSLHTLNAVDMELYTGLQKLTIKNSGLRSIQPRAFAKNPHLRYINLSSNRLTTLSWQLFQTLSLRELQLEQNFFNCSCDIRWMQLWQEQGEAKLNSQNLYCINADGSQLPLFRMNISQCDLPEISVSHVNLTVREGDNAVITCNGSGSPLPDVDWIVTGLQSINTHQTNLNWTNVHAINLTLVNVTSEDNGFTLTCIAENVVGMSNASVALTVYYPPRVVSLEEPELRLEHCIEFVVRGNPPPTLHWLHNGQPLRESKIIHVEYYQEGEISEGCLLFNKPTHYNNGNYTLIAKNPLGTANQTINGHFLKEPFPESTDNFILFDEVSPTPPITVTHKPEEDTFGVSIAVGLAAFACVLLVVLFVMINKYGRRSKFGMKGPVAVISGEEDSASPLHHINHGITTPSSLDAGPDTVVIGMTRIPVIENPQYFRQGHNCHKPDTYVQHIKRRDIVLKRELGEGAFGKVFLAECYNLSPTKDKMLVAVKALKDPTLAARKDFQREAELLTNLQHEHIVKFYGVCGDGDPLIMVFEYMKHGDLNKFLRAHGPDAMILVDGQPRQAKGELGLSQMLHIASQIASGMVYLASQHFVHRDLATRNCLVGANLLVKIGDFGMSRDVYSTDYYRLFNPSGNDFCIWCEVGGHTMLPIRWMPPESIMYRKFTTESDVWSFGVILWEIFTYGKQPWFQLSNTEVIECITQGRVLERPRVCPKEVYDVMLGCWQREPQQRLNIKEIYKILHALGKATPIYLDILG

[15] = AUC in Sprague-Dawley rat at 5 mg/kg, po by LC-MS/MS analysis; type: ADME, organism-based; parameters: dose 5 mg/kg, route oral; conditions: plasma
[16] = Oral bioavailability in beagle dog at 5 mg/kg by LC-MS/MS analysis; type: ADME, organism-based, Canis lupus familiaris; conditions: in vivo
[17] = Clearance in BALB/c mouse at 1 mg/kg, iv by LC-MS/MS analysis; type: ADME, organism-based; parameters: dose 1 mg/kg, route intravenous; conditions: in vivo
[18] = Cmax in BALB/c mouse at 50 mg/kg, po by LC-MS/MS analysis; type: ADME, organism-based; parameters: dose 50 mg/kg, route oral; conditions: in vivo
[19] = Cmax in beagle dog at 5 mg/kg, po by LC-MS/MS analysis; type: ADME, organism-based, Canis lupus familiaris; parameters: dose 5 mg/kg, route oral; conditions: in vivo
[20] = Oral bioavailability in BALB/c mouse at 50 mg/kg by LC-MS/MS analysis; type: ADME, organism-based; conditions: in vivo
[21] = Volume of distribution at steady state in Sprague-Dawley rat at 1 mg/kg, iv by LC-MS/MS analysis; type: ADME, organism-based; parameters: dose 1 mg/kg, route intravenous; conditions: in vivo, read-out: Vdss
[22] = Plasma protein binding in human; type: ADME, cell-free; conditions: read-out: PPB (converted)
[23] = test system: T1, Receptor-type tyrosine-protein kinase FLT3 (Homo sapiens), P36888 [D835Y]; test: Inhibition of FLT3 D835Y mutant (unknown origin) at 0.1 uM
T1 sequence (whole entry): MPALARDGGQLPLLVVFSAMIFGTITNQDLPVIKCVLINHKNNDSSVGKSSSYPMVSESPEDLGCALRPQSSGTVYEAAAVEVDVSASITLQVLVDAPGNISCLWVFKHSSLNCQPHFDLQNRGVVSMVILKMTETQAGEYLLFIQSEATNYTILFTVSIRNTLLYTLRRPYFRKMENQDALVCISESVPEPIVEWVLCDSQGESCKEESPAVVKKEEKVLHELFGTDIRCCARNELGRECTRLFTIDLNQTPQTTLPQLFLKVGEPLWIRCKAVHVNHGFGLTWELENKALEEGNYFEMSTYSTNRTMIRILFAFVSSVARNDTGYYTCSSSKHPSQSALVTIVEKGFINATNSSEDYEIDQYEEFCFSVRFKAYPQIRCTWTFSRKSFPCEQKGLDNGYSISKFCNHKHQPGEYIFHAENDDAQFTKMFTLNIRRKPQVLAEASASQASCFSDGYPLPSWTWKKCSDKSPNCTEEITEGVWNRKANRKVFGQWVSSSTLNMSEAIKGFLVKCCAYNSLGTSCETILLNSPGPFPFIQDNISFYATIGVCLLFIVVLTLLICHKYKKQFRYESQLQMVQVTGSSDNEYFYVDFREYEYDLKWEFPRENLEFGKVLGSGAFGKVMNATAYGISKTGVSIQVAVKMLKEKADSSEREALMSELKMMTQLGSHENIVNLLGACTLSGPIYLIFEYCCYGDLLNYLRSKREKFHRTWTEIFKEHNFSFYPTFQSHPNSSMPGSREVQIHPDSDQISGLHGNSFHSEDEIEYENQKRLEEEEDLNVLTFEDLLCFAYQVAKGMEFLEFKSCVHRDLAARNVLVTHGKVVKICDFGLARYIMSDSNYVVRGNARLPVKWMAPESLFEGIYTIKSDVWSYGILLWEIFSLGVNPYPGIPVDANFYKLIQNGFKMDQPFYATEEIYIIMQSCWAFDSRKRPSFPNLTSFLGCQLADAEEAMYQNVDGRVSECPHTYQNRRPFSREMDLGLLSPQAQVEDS

[24] = Volume of distribution at steady state in beagle dog at 1 mg/kg, iv by LC-MS/MS analysis; type: ADME, organism-based, Canis lupus familiaris; parameters: dose 1 mg/kg, route intravenous; conditions: in vivo
[25] = target: BDNF/NT-3 growth factors receptor (Homo sapiens) (UniProt Q16620); test: Inhibition of TRKB (unknown origin) at 0.1 uM
Chain of BDNF/NT-3 growth factors receptor (Homo sapiens) (Q16620 32-822 limits assumed): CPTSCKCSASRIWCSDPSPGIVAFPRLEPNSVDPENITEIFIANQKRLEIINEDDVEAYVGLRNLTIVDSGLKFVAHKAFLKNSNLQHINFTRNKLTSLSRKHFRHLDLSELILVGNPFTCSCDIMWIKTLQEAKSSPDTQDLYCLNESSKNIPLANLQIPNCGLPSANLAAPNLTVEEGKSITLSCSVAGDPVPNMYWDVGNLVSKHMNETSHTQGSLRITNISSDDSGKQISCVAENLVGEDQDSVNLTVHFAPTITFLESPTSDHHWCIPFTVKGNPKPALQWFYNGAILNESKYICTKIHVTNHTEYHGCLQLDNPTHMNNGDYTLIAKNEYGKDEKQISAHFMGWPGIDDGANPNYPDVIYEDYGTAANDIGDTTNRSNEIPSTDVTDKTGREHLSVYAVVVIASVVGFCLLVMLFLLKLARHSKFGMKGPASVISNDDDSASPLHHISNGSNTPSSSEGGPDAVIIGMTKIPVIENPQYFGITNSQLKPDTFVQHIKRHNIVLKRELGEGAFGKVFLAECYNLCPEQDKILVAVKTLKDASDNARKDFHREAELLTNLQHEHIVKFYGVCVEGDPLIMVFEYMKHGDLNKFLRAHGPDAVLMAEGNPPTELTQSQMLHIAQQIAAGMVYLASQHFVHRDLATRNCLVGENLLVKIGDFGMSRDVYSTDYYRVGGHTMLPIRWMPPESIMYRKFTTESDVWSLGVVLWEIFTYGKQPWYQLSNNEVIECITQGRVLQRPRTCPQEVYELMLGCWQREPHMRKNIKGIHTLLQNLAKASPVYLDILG

[26] = Oral bioavailability in Sprague-Dawley rat at 5 mg/kg by LC-MS/MS analysis; type: ADME, organism-based; conditions: in vivo
[27] = AUC in BALB/c mouse at 1 mg/kg, iv by LC-MS/MS analysis; type: ADME, organism-based; parameters: dose 1 mg/kg, route intravenous; conditions: plasma
[28] = Half life in Sprague-Dawley rat at 1 mg/kg, iv by LC-MS/MS analysis; type: ADME, organism-based; parameters: dose 1 mg/kg, route intravenous; conditions: in vivo
[29] = AUC in beagle dog at 1 mg/kg, iv by LC-MS/MS analysis; type: ADME, organism-based, Canis lupus familiaris; parameters: dose 1 mg/kg, route intravenous; conditions: plasma
physchem [30] = conditions: 1-octanol/phosphate buffer, pH 7.4, logD
[31] = Half life in beagle dog at 1 mg/kg, iv by LC-MS/MS analysis; type: ADME, organism-based, Canis lupus familiaris; parameters: dose 1 mg/kg, route intravenous; conditions: in vivo

CN(C)CC[C@@H](c1ccccc1)n1cc(NC(=O)c2n[nH]c3c2CCC(C)(C)C3)cn1
clearance [1]: 21 mL/min/kg
inhibition [2]: 93%
Vd [3]: 10 L/kg
AUC [4]: 0.6 µM·h
clearance [5]: 70 mL/min/kg
AUC [6]: 27 µM·h
half-life [7]: 2.9 h
Papp [8]: 4.6 ×10⁻⁶ cm/s
AUC [9]: 10 µM·h
solubility kinetic at 24 h, 10000 µM (physchem [10]): 68 µM (≈ 28.6 µg/mL)
inhibition [11]: 80%
inhibition [12]: 76%
Cmax [13]: 200 nM
inhibition [14]: 88%
AUC [15]: 1.1 µM·h
bioavailability [16]: 100%
clearance [17]: 40 mL/min/kg
Cmax [18]: 3800 nM
Cmax [19]: 900 nM
bioavailability [20]: 36%
Vd [21]: 14 L/kg
fraction unbound [22]: 0.07
inhibition [23]: 75%
Vd [24]: 6.7 L/kg
inhibition [25]: 91%
bioavailability [26]: 40%
AUC [27]: 1.5 µM·h
half-life [28]: 3 h
AUC [29]: 1.9 µM·h
logD at 20 min, 10000 µM (physchem [30]): 2
half-life [31]: 5.4 h
